Laboratory results as given in patent US7709532B2, “Methods for improving bioavailability of a renin inhibitor” (Novartis AG, priority 2004, dated 2010).
Blank lines part the entries; values can stand above or below the compound they belong to.

Columns and labels:
in vitro = conditions: human, Caco-2
Text: (§1) Alternatively, the in vitro transporter affinity of a drug substance can be determined and approximated by a Caco-2 cell assay as described, e.g., in Camenisch et al., Pharm. Act. Helv. 71, 309-327 (1996), or as illustrated herein in the Examples. The identification of the transporter protein and the efficacy of a compound to inhibit the efflux system involved may as well be determined in the Caco-2 cell assay.
(§2) Caco-2 cell monolayers grown on PET filters for 21-25 days are used for the transport experiments. The flux of compounds across Caco-2 cell monolayers grown on PET filters as well as across PET filters alone without Caco-2 cells is determined as follows: Prior to the transport experiment, the culture medium in the acceptor compartment (0.2 mL for apical and 1.0 mL for basolateral sides) is replaced with acceptor solution (HBSS, when relevant containing the inhibitor of interest) preincubated at 37° C. To start the experiment, the medium in the donor compartment (0.35 mL for apical and 1.15 mL for basolateral sides) is replaced with donor solution (compound in HBSS, when relevant containing inhibitor of interest) pre-incubated at 37° C. Aliquots of 150 μL are removed from the donor and the acceptor side after about 1 and 120 min. Transport experiments in both apical-to-basolateral and basolateral-to-apical directions are performed in triplicate at 37° C. in an incubator without shaking.
(§3) The suitability of Caco-2 cells for transport experiments is examined by measuring the permeability of [^3H]-mannitol at >0.1 μM and [^3H]-propranolol at >0.1 μM from apical to basolateral sides for 120 min in a total of 6 representative cell monolayers (3 for each compound) within the same batch of cells.
(§4) Radioactive samples are analyzed by liquid scintillation counting. All other non-radiolabeled samples are kept frozen at −20° C. until analysis by liquid chromatography/tandem mass spectrometry (LC-MS/MS).
(§5) Transport values of the compounds tested are determined using the following equation (Artursson et al., Biochem. Biophys. Res. Comm. 175: 880-885, 1991):
(§6) Papp values are presented as means ± standard deviations of the transport experiments performed (n=3). The statistical significance in differences between any two given data sets is examined by t-test. The probability level for assignment of significance of difference is p<0.025. All statistical analyses were performed using Microsoft EXCEL 5.0c.

[1] = In situ bile-duct cannulated rat experiment (biliary clearance); conditions: for effect on 14C concentration in plasma: i.v. bolus of inhibitor (PSC833 10 mg/kg, probenecid 50 mg/kg) during constant infusion of [14C]-SPP100 hemifumarate
Procedure: The effect in situ of co-administration of an efflux protein inhibitor, e.g., a MDR1 inhibitor, on the biliary excretion of a renin inhibitor may be investigated by comparing the amount of compound excreted into bile, in the presence and the absence of an efflux protein inhibitor.
The animals that may be used are, e.g., male albino HAN:WIST rats, 4 to 5 animals in each treatment group.
For all treatment groups blood samples are collected at 0.5, 1, 1.33, 1.67, 2, 2.33, 2.67, 3 h after treatment and blood is immediately processed to plasma. Bile is collected for the time frame of 1 to 3 h in intervals of 20 min.
• for total radioactivity in all samples: LSC; LOQ 3.4 μg/L for plasma and bile; and • for detection of metabolite pattern in selected pools of samples: HPLC with radioactivity detection.

Caco-2 cell monolayers = assay: in vitro; conditions: human, Caco-2, 120 min
Text: as §1, §2, §3, §4, §5, §6

[2] = In vivo bioavailability experiment, single oral administration; set-up: species or system rat; conditions: for Cmax / Tmax: male, HAN:WIST, rat, plasma, po
Text: Similarly, the effect in vivo of co-administration of an efflux protein inhibitor, e.g., a MDR1 inhibitor, on the bioavailability of a renin inhibitor may be investigated by comparing the pharmacokinetic parameters, Cmax and AUCs, in the presence and the absence of an efflux protein inhibitor.
The animals that may be used are, e.g., male albino HAN:WIST rats, 5 animals in each treatment group.
Plasma is used for biochemical analysis.

[3] = system: T1, COCCCOc1cc(C[C@@H](C[C@H](N)[C@@H](O)C[C@H](C(=O)NCC(C)(C)C(N)=O)C(C)C)C(C)C)ccc1OC; assay: ATPase assay in membrane vesicles expressing high levels of MDR1; type: biochemical, human; conditions: other: membrane vesicles expressing high levels of MDR1; pH 7.4; 37.0 °C
T1 construct: host or cells: Sf9 (Spodoptera frugiperda) membrane vesicles
Text: The efflux protein(s) involved in the drug efflux of a drug substance may be identified, and the corresponding kinetic parameters may be determined, i.e., Michaelis-Menten Constant and Maximal Drug Transport (Km and Jmax) using methods known in the art, e.g., by an ATPase assay using Sf9 (Spodoptera fruigiperda) membrane vesicles expressing high levels of the selected ABC transporter. In this assay the ABC transporters remove substrates out of cells by using ATP hydrolysis as an energy source. ATP hydrolysis yields inorganic phosphate (Pi), which can be detected by a simple colorimetric reaction. The amount of Pi liberated by the transporter is proportional to the activity of the transporter. Membrane preparations containing ABC transporters show a baseline ATPase activity that varies for different transporters. […]
Efflux mediated by the human MDR1, the human MRP1 or the human MRP2 is measured by incubating the purified membrane vesicles in the absence and the presence of a stimulating agent (Verapamil [40 μM] for MDR1, NEM-GS [10 mM] for MRP1 and Probenecid [1 mM] for MRP2) with different concentrations of a drug substance [0.046, 0.137, 0.41, 1.23, 3.7, 11.1, 33.3 and 100 μM] in transport buffer at pH 7.4 at 37° C. […]
After incubating the OD is measured at 730 nm. Using a previously determined phosphate standard curve the Pi liberated [nmol/well] can be calculated. […]

[4] = 6 mg base/kg, rat plasma, oral SPP100 hemifumarate 6 mg base/kg + vehicle
[5] = 6 mg/kg, oral SPP100 6 mg base/kg + PSC833 5 mg/kg
[6] = 6 mg/kg, oral SPP100 6 mg base/kg + PSC833 12.5 mg/kg
[7] = 6 mg/kg, oral SPP100 6 mg base/kg + PSC833 25 mg/kg
[8] = 6 mg/kg, oral SPP100 6 mg base/kg + PSC833 50 mg/kg
[9] = probenecid 50 mg/kg i.v. during constant infusion of [14C]-SPP100 hemifumarate

- effect on 14C concentration in bile ([1]; PSC833 10 mg/kg i.v. during constant infusion of [14C]-SPP100 hemifumarate): significant decrease
- effect on 14C concentration in plasma [1]: trend towards a time dependent increase
- biliary clearance of [14C]-labeled compounds, % of the value obtained before administration ([1]; i.v. bolus of inhibitor during constant i.v. infusion of [14C]-SPP100 hemifumarate, PSC833 10 mg/kg): approximately 7%
Compound: C/C=C/C[C@@H](C)C(=O)[C@H]1C(=O)N[C@@H](C(C)C)C(=O)N(C)CC(=O)N(C)[C@@H](CC(C)C)C(=O)N[C@@H](C(C)C)C(=O)N(C)[C@@H](CC(C)C)C(=O)N[C@@H](C)C(=O)N[C@H](C)C(=O)N(C)[C@@H](CC(C)C)C(=O)N(C)[C@@H](CC(C)C)C(=O)N(C)[C@@H](C(C)C)C(=O)N1C [PSC833]

- Papp A→B at 120 min, 1 μM (in vitro): ~0.0333 ×10⁻⁶ cm/s
- Papp A→B at 120 min, 10 µM (in vitro): ~1.17 ×10⁻⁶ cm/s
- Papp B→A at 120 min, 1 µM (in vitro): ~1.67 ×10⁻⁶ cm/s
- intrinsic permeability (Caco-2 cell monolayers): < 80%
- Cmax [2, 4]: ~24.8 ng/mL
- Tmax [2, 4]: 0.44 ± 0.1 h
- Cmax [2, 5]: 35.7 ± 18 ng/mL
- Tmax [2, 5]: 4.8 ± 1.8 h
- Cmax [2, 6]: 115 ± 93 ng/mL
- Tmax [2, 6]: 4.95 ± 4.2 h
- Cmax [2, 7]: 81.4 ± 19 ng/mL
- Tmax [2, 7]: 15.2 ± 18 h
- Cmax [2, 8]: 26.7 ± 18 ng/mL
- Tmax [2, 8]: 3.06 ± 1.9 h
- dose-normalized AUC(0-tlast), times higher than in the vehicle group ([2]; oral SPP100 6 mg base/kg + PSC833 5 mg/kg): about 23 times
- dose-normalized AUC(0-tlast), times higher than in the vehicle group ([2]; oral SPP100 6 mg base/kg + PSC833 12.5 mg/kg): ~69 times
- dose-normalized AUC(0-tlast), times higher than in the vehicle group ([2]; oral SPP100 6 mg base/kg + PSC833 25 mg/kg): ~76 times
- dose-normalized AUC(0-tlast), times higher than in the vehicle group ([2]; oral SPP100 6 mg base/kg + PSC833 50 mg/kg): ~17 times
- increase of dose-normalized AUC(0-tlast) compared to control group solely dosed with SPP100 ([2]; orally dosed rats, in the presence of PSC833): about 70 fold
- dose-normalized AUC(0-tlast) ([2]; rat plasma, oral SPP100 hemifumarate 6 mg base/kg + vehicle): 2.38±3.4 (ng*h/mL)/(mg/kg)
Compound: COCCCOc1cc(C[C@@H](C[C@H](N)[C@@H](O)C[C@H](C(=O)NCC(C)(C)C(N)=O)C(C)C)C(C)C)ccc1OC [SPP100, (2S,4S,5S,7S)-5-amino-4-hydroxy-2-isopropyl-7-[4-methoxy-3-(3-methoxy-propoxy)-benzyl]-8-methyl-nonanoic acid (2-carbamoyl-2-methyl-propyl)-amide hemifumarate]

Continued, compound first:

Compound: OC[C@@H](O)[C@@H](O)[C@H](O)[C@H](O)CO [Mannitol, reference compound]
- Papp A→B at 120 min (in vitro): < 0.5 ×10⁻⁶ cm/s

Compound: CC(C)NCC(O)COc1cccc2ccccc12 (centres unmarked) [Propranolol, reference compound]
- Papp A→B at 120 min (in vitro): < 15 ×10⁻⁶ cm/s

Compound: CCCN(CCC)S(=O)(=O)c1ccc(C(=O)O)cc1 [probenecid]
- effect on 14C concentration in plasma [1]: no effect
- biliary clearance before and after administration [1, 9]: similar
- decrease of the [14C] concentration in bile vs value prior to administration [1, 9]: about 40%

Compound: human MDR1 (Homo sapiens)
- Km [3]: 3 µM
